Experimental data: patent US20220324835A1 (Nurix Therapeutics, Inc., priority 2018, published 2022)

Legend:
T-cell [1] = experiment: IL-2 secretion from T-cells stimulated with anti-CD3 antibody alone (Biological Example 2); format: cell-based, human; conditions: Homo sapiens, T-cell
T-cell [2] = experiment: CD25 cell surface staining on T-cells co-stimulated with anti-CD3 and anti-CD28 antibody (Biological Example 2); format: cell-based, human; conditions: Homo sapiens, T-cell
Outline: (§1)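 No assay protocol given; T-cells stimulated with anti-CD3 alone or anti-CD3 plus anti-CD28, with or without Cbl-b inhibitor. Activation read as IL-2 secretion or CD25 surface staining, expressed as fold over baseline from uninhibited cells […].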

Cbl-b [3] = target: T1, Cbl-b (Homo sapiens, UniProt Q13191); experiment: Cbl-b activity assay (Cbl-b inhibition assay), TR-FRET of Cbl-b interaction with UbcH5B-Ub; format: biochemical; conditions: assay buffer with 100 mM NaCl, 60 nM Src kinase; read-out: Cbl-b activity IC50
T1 sequence (Q13191 36-427): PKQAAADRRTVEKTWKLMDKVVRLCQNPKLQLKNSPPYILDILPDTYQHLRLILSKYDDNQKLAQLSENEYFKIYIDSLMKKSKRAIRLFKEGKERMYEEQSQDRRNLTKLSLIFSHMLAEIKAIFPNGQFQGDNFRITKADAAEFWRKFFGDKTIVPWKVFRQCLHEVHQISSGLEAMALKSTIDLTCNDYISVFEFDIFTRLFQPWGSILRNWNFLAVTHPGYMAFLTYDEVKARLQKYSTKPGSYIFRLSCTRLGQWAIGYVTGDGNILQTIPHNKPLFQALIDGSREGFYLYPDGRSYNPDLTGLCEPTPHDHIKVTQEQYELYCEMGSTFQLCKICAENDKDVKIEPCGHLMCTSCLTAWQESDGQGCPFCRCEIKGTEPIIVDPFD
Outline: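 TR-FRET readout of Cbl-b binding to Bodipy-fluorescein N-terminally labeled Ub conjugated to UbcH5B C85K, measured with compound present. After compound incubation, 60 nM Src kinase with 1 mM ATP and 5 mM MgCl2 (final) was added for 1.5 h, then a further 1 h incubation; asterisked values used 50 mM NaCl buffer and 30 nM Src.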

T-cell [4] = experiment: IL-2 secretion from T-cells co-stimulated with anti-CD3 and anti-CD28 antibody (Biological Example 2); format: cell-based, human; conditions: Homo sapiens, T-cell
Outline: as §1

T-cell [5] = experiment: CD25 cell surface staining on T-cells stimulated with anti-CD3 antibody alone (Biological Example 2); format: cell-based, human; conditions: Homo sapiens, T-cell
Cbl-b [6] = target: T1, Cbl-b; experiment: Cbl-b inhibition assay (Cbl-b activity assay, FRET, Biological Example 1; 100 mM NaCl, 60 nM Src kinase); format: biochemical; conditions: upper bound stated in text lists; read-out: IC50 values in the Cbl-b inhibition assay of Biological Example 1
Outline: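 Here, the E2 UbcH5B, irreversibly linked to Bodipy-fluorescein ubiquitin, binds Cbl-b once Src kinase phosphorylates it; Cbl-b carries an N-terminal biotinylated Avi-tag captured by streptavidin-terbium. An absent FRET signal indicates inhibition.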

[7] = 1 μM Cbl-b inhibitor, fold change over baseline (anti-CD3/anti-CD28 stimulated T-cells without inhibitor), read-out: IL-2 secretion Anti-CD3 stimulation
[8] = 0.3 μM Cbl-b inhibitor, fold change over baseline (anti-CD3/anti-CD28 stimulated T-cells without inhibitor), read-out: CD25 staining Anti-CD3/Anti-CD28 stimulation
[9] = 1 μM Cbl-b inhibitor, fold change over baseline (anti-CD3/anti-CD28 stimulated T-cells without inhibitor), read-out: CD25 staining Anti-CD3/Anti-CD28 stimulation
[10] = 0.3 μM Cbl-b inhibitor, fold change over baseline (anti-CD3/anti-CD28 stimulated T-cells without inhibitor), read-out: IL-2 secretion Anti-CD3/Anti-CD28 stimulation
[11] = 1 μM Cbl-b inhibitor, fold change over baseline (anti-CD3/anti-CD28 stimulated T-cells without inhibitor), read-out: IL-2 secretion Anti-CD3/Anti-CD28 stimulation
[12] = 1 μM Cbl-b inhibitor, fold change over baseline (anti-CD3/anti-CD28 stimulated T-cells without inhibitor), read-out: CD25 staining Anti-CD3 stimulation
[13] = read-out: CD25 staining, Anti-CD3/Anti-CD28 stimulation, fold change over baseline
[14] = read-out: IL-2 secretion, Anti-CD3/Anti-CD28 stimulation, fold change over baseline

Cn1cnnc1OC1(c2cccc(N3Cc4c(cc(CN5CCC(F)CC5)cc4C(F)(F)F)C3=O)c2)COC1 [Example 700, 6-((4-fluoropiperidin-1-yl)methyl)-2-(3-(3-((4-methyl-4H-1,2,4-triazol-3-yl)oxy)oxetan-3-yl)phenyl)-4-(trifluoromethyl)isoindolin-1-one]
fold induction at 1 µM (T-cell [1]; [7]): < 0.05
fold induction at 0.3 µM (T-cell [2]; [8]): 1.01 to 1.3
fold induction at 1 µM (T-cell [2]; [9]): 1.31 to 1.5
IC50 (Cbl-b [3]): 100 to 300 nM
fold induction at 0.3 µM (T-cell [4]; [10]): 1.01 to 2.5
fold induction at 1 µM (T-cell [4]; [11]): 2.51 to 5
fold induction at 1 µM (T-cell [5]; [12]): 0.601 to 0.8
IC50 (Cbl-b [6]): ≤ 300 nM

Cn1cnnc1CC1(c2cccc(N3Cc4c(cc(CN5[C@@H]6CC[C@H]5C[C@@H](F)C6)cc4C(F)(F)F)C3=O)c2)COC1 [Example 557, 6-(((1R,3r,5S)-3-fluoro-8-azabicyclo[3.2.1]octan-8-yl)methyl)-2-(3-(3-((4-methyl-4H-1,2,4-triazol-3-yl)methyl)oxetan-3-yl)phenyl)-4-(trifluoromethyl)isoindolin-1-one]
fold induction at 1 µM (T-cell [1]; read-out: IL-2 secretion, Anti-CD3 stimulation, fold change over baseline): > 0.201
fold induction at 0.3 µM (T-cell [2]; [13]): > 1.76
fold induction at 1 µM (T-cell [2]; [13]): > 1.76
IC50 (Cbl-b [3]): < 100 nM
fold induction at 0.3 µM (T-cell [4]; [14]): 5 to 7.5
fold induction at 1 µM (T-cell [4]; [14]): > 7.5
fold induction at 1 µM (T-cell [5]; read-out: CD25 staining, Anti-CD3 stimulation, fold change over baseline): > 1
IC50 (Cbl-b [6]): ≤ 100 nM

Cc1cc2c(c(C3CC3)n1)CN(c1cccc(C3(C(F)(F)c4nncn4C)COC3)c1)C2=O [Example 677, 4-cyclopropyl-2-(3-(3-(difluoro(4-methyl-4H-1,2,4-triazol-3-yl)methyl)oxetan-3-yl)phenyl)-6-methyl-2,3-dihydro-1H-pyrrolo[3,4-c]pyridin-1-one]
fold induction at 1 µM (T-cell [1]; [7]): 0.051 to 0.1
fold induction at 0.3 µM (T-cell [2]; [8]): 1.01 to 1.3
fold induction at 1 µM (T-cell [2]; [9]): 1.01 to 1.3
IC50 (Cbl-b [3]): 301 to 1000 nM
fold induction at 0.3 µM (T-cell [4]; [10]): 1.01 to 2.5
fold induction at 1 µM (T-cell [4]; [11]): 1.01 to 2.5
fold induction at 1 µM (T-cell [5]; [12]): 0.601 to 0.8
IC50 (Cbl-b [6]): ≤ 1000 nM

C[C@@H]1CCN(Cc2cc3c(c(C(F)(F)F)c2)CN(c2cccc(C4(Cc5nncn5C)COC4)c2)C3=O)C[C@H]1F (relative stereo) [Example 631, 6-((trans-3-fluoro-4-methylpiperidin-1-yl)methyl)-2-(3-(3-((4-methyl-4H-1,2,4-triazol-3-yl)methyl)oxetan-3-yl)phenyl)-4-(trifluoromethyl)isoindolin-1-one]
fold induction at 1 µM (T-cell [1]; [7]): > 0.201
fold induction at 0.3 µM (T-cell [2]; [8]): 1.31 to 1.5
fold induction at 1 µM (T-cell [2]; [9]): 1.51 to 1.75
IC50 (Cbl-b [3]): < 100 nM
fold induction at 0.3 µM (T-cell [4]; [10]): > 7.5
fold induction at 1 µM (T-cell [4]; [11]): > 7.5
fold induction at 1 µM (T-cell [5]; [12]): > 1
IC50 (Cbl-b [6]): ≤ 100 nM

COC1CCCN(Cc2cc3c(c(C(F)(F)F)c2)CN(c2cccc(C4(Cc5nncn5C)COC4)c2)C3=O)C1 (stereo not drawn) [Example 637, 6-((3-methoxypiperidin-1-yl)methyl)-2-(3-(3-((4-methyl-4H-1,2,4-triazol-3-yl)methyl)oxetan-3-yl)phenyl)-4-(trifluoromethyl)isoindolin-1-one]
fold induction at 1 µM (T-cell [1]; [7]): > 0.201
fold induction at 0.3 µM (T-cell [2]; [8]): 1.31 to 1.5
fold induction at 1 µM (T-cell [2]; [9]): 1.51 to 1.75
IC50 (Cbl-b [3]): < 100 nM
fold induction at 0.3 µM (T-cell [4]; [10]): > 7.5
fold induction at 1 µM (T-cell [4]; [11]): > 7.5
fold induction at 1 µM (T-cell [5]; [12]): > 1
IC50 (Cbl-b [6]): ≤ 100 nM

Cc1nc2c(o1)CCN(Cc1cc3c(c(C(F)(F)F)c1)CN(c1cccc(C4(Cc5nncn5C)COC4)c1)C3=O)C2 [Example 649, 2-(3-(3-((4-methyl-4H-1,2,4-triazol-3-yl)methyl)oxetan-3-yl)phenyl)-6-((2-methyl-6,7-dihydrooxazolo[4,5-c]pyridin-5(4H)-yl)methyl)-4-(trifluoromethyl)isoindolin-1-one]
fold induction at 1 µM (T-cell [1]; [7]): > 0.201
fold induction at 0.3 µM (T-cell [2]; [8]): 1.01 to 1.3
fold induction at 1 µM (T-cell [2]; [9]): 1.31 to 1.5
IC50 (Cbl-b [3]): < 100 nM
fold induction at 0.3 µM (T-cell [4]; [10]): 5 to 7.5
fold induction at 1 µM (T-cell [4]; [11]): > 7.5
fold induction at 1 µM (T-cell [5]; [12]): > 1
IC50 (Cbl-b [6]): ≤ 100 nM
